Reference: US8921577B2, “Cholecystokinin receptor ligands” (PNB Vesper Life Sciences Pvt. Ltd., priority 2012, dated 2014)

Columns and labels:
CCKB receptor = molecular target: T1, CCKB receptor (Cavia porcellus, UniProt H0VZC5); assay: [125]I-CCK-8 receptor binding assay, CCKB (guinea pig cerebral cortex membranes); conditions: for IC50: guinea pig cerebral cortex membranes, 125I-Bolton-Hunter labeled CCK 25 pM, pH 6.5, 2 hrs at RT, read-out: Binding affinity Activity CCK-B
T1 construct: Male guinea pig brain tissues were prepared according to the modified method described by Saita et al; from tissue; host or cells: male guinea pig cerebral cortex membranes
T1 sequence (H0VZC5 1-426): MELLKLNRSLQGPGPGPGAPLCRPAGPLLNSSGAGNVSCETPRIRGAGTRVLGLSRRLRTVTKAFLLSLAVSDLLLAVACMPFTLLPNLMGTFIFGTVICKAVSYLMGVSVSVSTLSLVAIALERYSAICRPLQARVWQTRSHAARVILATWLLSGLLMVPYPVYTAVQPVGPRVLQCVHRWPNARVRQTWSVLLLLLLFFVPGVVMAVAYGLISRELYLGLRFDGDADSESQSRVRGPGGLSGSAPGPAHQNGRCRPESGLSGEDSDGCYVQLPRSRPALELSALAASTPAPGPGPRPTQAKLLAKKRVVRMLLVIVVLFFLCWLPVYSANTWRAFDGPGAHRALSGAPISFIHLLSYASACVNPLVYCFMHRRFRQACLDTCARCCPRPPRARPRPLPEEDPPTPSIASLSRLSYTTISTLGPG
Description: (§1) CCKA and CCKB receptor binding assays were performed using guinea pig cerebral cortex (CCKB) and rat pancreas (CCKA). Male guinea pig brain tissues were prepared according to the modified method described by Saita et al, [(1994), Eur. J. Pharmacol., 269, 249-254]. Pancreatic membranes were prepared in a similar way described by Charpentier et al, [(1988), Proc Natl Acad Sci USA, 85, 1968-1972]. Briefly, tissues were homogenized in ice cold sucrose (0.32 M, 25 ml) for 15 strokes at 500 rpm and centrifuged at 13000 rpm for 10 mins. The supernatant was re-centrifuged at 13000 rpm for 20 mins. The resulting pellet was re-dispersed to the required volume of buffer at 500 rpm and stored in aliquots at −70° C.
(§2) Binding was achieved using a radioligand ^125I-Bolton-Hunter labeled CCK, NEN at 25 pM. The samples were incubated {with membranes (0.1 mg/ml)} in 20 mM Hepes, 1 mM EGTA, 5 mM MgCl2, 150 mm NaCl, 0.25 mg/ml bacitracin at pH 6.5 for 2 hrs at RT and then […] by centrifugation at 1100 rpm for 5 minutes. The membrane pellets were washed twice with water and the bound radioactivity was measured in a Packard Cobra Auto-gamma counter (B5005). All binding assays were carried out with L-363, 260 as an internal non-specific standard. Controls (no compound) were also added. All samples were made in duplicate and repeated twice. All compounds were initially screened for percentage inhibition at 10 μm. Samples showing an average inhibition of >35% were diluted to 1 μm and re-screened and if active diluted again.

CCKA receptor = molecular target: T2, CCKA receptor (Rattus norvegicus, UniProt P30551); assay: [125]I-CCK-8 receptor binding assay, CCKA (rat pancreas membranes); conditions: for IC50: rat pancreas membranes, 125I-Bolton-Hunter labeled CCK 25 pM, pH 6.5, 2 hrs at RT, read-out: Binding affinity Activity CCK-A
T2 construct: Pancreatic membranes were prepared in a similar way described by Charpentier et al; from tissue; host or cells: rat pancreas membranes
T2 sequence (P30551 1-444): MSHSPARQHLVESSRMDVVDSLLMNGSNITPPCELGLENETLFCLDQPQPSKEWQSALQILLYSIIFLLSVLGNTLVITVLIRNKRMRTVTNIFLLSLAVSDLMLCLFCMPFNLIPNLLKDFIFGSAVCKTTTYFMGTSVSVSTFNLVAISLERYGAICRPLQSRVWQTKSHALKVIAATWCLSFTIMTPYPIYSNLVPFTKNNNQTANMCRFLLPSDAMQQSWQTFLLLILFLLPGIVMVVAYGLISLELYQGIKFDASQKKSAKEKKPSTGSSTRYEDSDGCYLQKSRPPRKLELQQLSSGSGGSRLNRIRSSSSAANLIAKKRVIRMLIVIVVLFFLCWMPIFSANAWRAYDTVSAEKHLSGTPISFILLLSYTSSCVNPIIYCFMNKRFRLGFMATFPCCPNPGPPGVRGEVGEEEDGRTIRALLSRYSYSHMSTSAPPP
Description: as §1, §2

Row | Structure (SMILES) | IC50 (CCKB receptor) | IC50 (CCKA receptor) | melting point | CCK antagonist character (in words) (CCKA receptor; judgement in words on CCK-A and CCK-B binding) | affinity towards the CCK B receptor (in words) (CCKB receptor; judgement in words)
1 | C[C@H](c1ccccc1)N1C(=O)C=C(Cl)C1(O)c1ccccc1 (single isomer, unassigned) [Example 10a] | > 10 µM | > 10 µM | 162 to 164 °C | – | –
2 | C[C@H](c1ccccc1)N1C(=O)C=C(Cl)C1(O)c1ccccc1 (single isomer, unassigned) [Example 10b] | > 10 µM | > 10 µM | – | – | –
3 | O=C1C=C(Cl)C(O)(c2ccccc2)N1C1CC1 (stereo not drawn) [Example 1, 4-Chloro-1-cyclopropyl-5-hydroxy-5-phenyl-1,5-dihydro-pyrrol-2-one] | > 10 µM | 2.5 µM | – | – | –
4 | Cc1ccc(N2C(=O)C=C(Cl)C2(O)c2ccccc2)cc1C (stereo not drawn) [Example 2, 4-Chloro-1-(3,4-dimethyl-phenyl)-5-hydroxy-5-phenyl-1,5-dihydro-pyrrol-2-one] | > 10 µM | 2 µM | 168 to 171 °C | – | –
5 | CC(C)N1C(=O)C=C(Cl)C1(O)c1ccccc1 (stereo not drawn) [Example 3, 4-Chloro-5-hydroxy-1-isopropyl-5-phenyl-1,5-dihydro-pyrrol-2-one] | > 10 µM | > 10 µM | – | – | –
6 | CN1C(=O)C=C(Cl)C1(O)c1ccccc1 (stereo not drawn) [Example 4, 4-Chloro-5-hydroxy-1-methyl-5-phenyl-1,5-dihydro-pyrrol-2-one] | > 10 µM | > 10 µM | – | – | –
7 | O=C1C=C(Cl)C(O)(c2ccccc2)N1CCc1ccccc1 (stereo not drawn) [Example 5, 4-Chloro-5-hydroxy-1-phenethyl-5-phenyl-1,5-dihydro-pyrrol-2-one] | 0.02 µM | 0.02 µM | 155 to 158 °C | potent and mixed CCK antagonist | –
8 | CCCCCCN1C(=O)C=C(Cl)C1(O)c1ccccc1 (stereo not drawn) [Example 6, 4-Chloro-1-hexyl-5-hydroxy-5-phenyl-1,5-dihydro-pyrrol-2-one] | > 10 µM | > 10 µM | – | – | –
9 | O=C1C=C(Cl)C(O)(c2ccccc2)N1C1CCCC1 (stereo not drawn) [Example 7, 4-Chloro-1-cyclopentyl-5-hydroxy-5-phenyl-1,5-dihydro-pyrrol-2-one] | 0.84 µM | 0.36 µM | – | – | –
10 | CC(C)CN1C(=O)C=C(Cl)C1(O)c1ccccc1 (stereo not drawn) [Example 8, 4-Chloro-5-hydroxy-1-isobutyl-5-phenyl-1,5-dihydro-pyrrol-2-one] | 0.01 µM | 4.5 µM | – | – | good affinity
11 | O=C1C=C(Cl)C(O)(c2ccccc2)N1Cc1ccccc1 (stereo not drawn) [Example 9, 1-Benzyl-4-chloro-5-hydroxy-5-phenyl-1,5-dihydro-pyrrol-2-one] | > 10 µM | > 10 µM | – | – | –
12 | O=C1C=C(Cl)C(O)(c2ccccc2)N1C1CCCCC1 (stereo not drawn) [Example 11, 4-Chloro-1-cyclohexyl-5-hydroxy-5-phenyl-1,5-dihydro-pyrrol-2-one] | > 10 µM | > 10 µM | – | – | –
13 | O=C1C=C(Cl)C(O)(c2ccc(Cl)cc2)N1C1CC1 (stereo not drawn) [Example 12, 4-Chloro-5-(4-chloro-phenyl)-1-cyclopropyl-5-hydroxy-1,5-dihydro-pyrrol-2-one] | > 10 µM | 7.5 µM | – | – | –
14 | CC(C)N1C(=O)C=C(Cl)C1(O)c1ccc(Cl)cc1 (stereo not drawn) [Example 13, 4-Chloro-5-(4-chloro-phenyl)-5-hydroxy-1-isopropyl-1,5-dihydro-pyrrol-2-one] | > 10 µM | > 10 µM | – | – | –
15 | CN1C(=O)C=C(Cl)C1(O)c1ccc(Cl)cc1 (stereo not drawn) [Example 14, 4-Chloro-5-(4-chloro-phenyl)-5-hydroxy-1-methyl-1,5-dihydro-pyrrol-2-one] | > 10 µM | > 10 µM | – | – | –
16 | O=C1C=C(Cl)C(O)(c2ccc(Cl)cc2)N1CCc1ccccc1 (stereo not drawn) [Example 15, 4-Chloro-5-(4-chloro-phenyl)-5-hydroxy-1-phenethyl-1,5-dihydro-pyrrol-2-one] | 0.0015 µM | 0.002 µM | 145 to 148 °C | – | –
17 | CCCCCCN1C(=O)C=C(Cl)C1(O)c1ccc(Cl)cc1 (stereo not drawn) [Example 16, 4-Chloro-5-(4-chloro-phenyl)-1-hexyl-5-hydroxy-1,5-dihydro-pyrrol-2-one] | > 10 µM | > 10 µM | – | – | –
18 | O=C1C=C(Cl)C(O)(c2ccc(Cl)cc2)N1C1CCCC1 (stereo not drawn) [Example 17, 4-Chloro-5-(4-chloro-phenyl)-1-cyclopentyl-5-hydroxy-1,5-dihydro-pyrrol-2-one] | > 10 µM | 2.5 µM | – | – | –
19 | O=C1C=C(Cl)C(O)(c2ccc(Cl)cc2)N1Cc1ccccc1 (stereo not drawn) [Example 19, 1-Benzyl-4-chloro-5-(4-chloro-phenyl)-5-hydroxy-1,5-dihydro-pyrrol-2-one] | > 10 µM | 2.2 µM | 149 to 152 °C | – | –
